Measurements: ChEMBL document CHEMBL1201862, “PubChem BioAssay data set” (2004)
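A five-concentration, 48-hour dose response in 96-well plates underlies each endpoint, interpolated linearly between surrounding concentrations. Here, GI50 denotes the concentration required for 50% inhibition of growth.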 Calls of active or inactive are those of the source. Rule as the data show it: active = GI50 up to about 1.1 µM and inactive = higher.

Key:
Experiment in all cases: inhibition of tumour cell growth, NCI panel, 48 h
DMS-114 = system: DMS-114
CCRF-CEM = system: CCRF-CEM
SNB-19 = system: SNB-19
SK-MEL-2 = system: SK-MEL-2
TK-10 = system: TK-10
RPMI-8226 = system: RPMI-8226
SF-295 = system: SF-295
OVCAR-4 = system: OVCAR-4
HCT-116 = system: HCT-116
HOP-92 = system: HOP-92
HT-29 = system: HT-29
SNB-75 = system: SNB-75
NCI-H522 = system: NCI-H522
HOP-62 = system: HOP-62
SK-MEL-5 = system: SK-MEL-5
MOLT-4 = system: MOLT-4
MCF7 = system: MCF7
MDA-MB-435 = system: MDA-MB-435
A498 = system: A498
BT-549 = system: BT-549

SMILES | GI50 (DMS-114) | GI50 (CCRF-CEM) | GI50 (SNB-19) | GI50 (SK-MEL-2) | GI50 (TK-10) | GI50 (RPMI-8226) | GI50 (SF-295) | GI50 (OVCAR-4) | GI50 (HCT-116) | GI50 (HOP-92) | GI50 (HT-29) | GI50 (SNB-75) | GI50 (NCI-H522) | GI50 (HOP-62) | GI50 (SK-MEL-5) | GI50 (MOLT-4) | GI50 (MCF7) | GI50 (MDA-MB-435) | GI50 (A498) | GI50 (BT-549)
COc1ccc2oc(-c3ccc(OC)c(OC)c3OC)cc(=O)c2c1 | 31.8 µM (inactive) | 35.2 µM (inactive) | 18.9 µM (inactive) | 22.9 µM (inactive) | 36.3 µM (inactive) | 17 µM (inactive) | 51.6 µM (inactive) | 38.7 µM (inactive) | 34.6 µM (inactive) | 50.6 µM (inactive) | 48.2 µM (inactive) | 48.3 µM (inactive) | 18.8 µM (inactive) | 70.3 µM (inactive) | – | – | – | – | – | –
CCOC(=O)C1C(=O)c2cccc(OC)c2C2COC(=O)N12 (centres undefined) | > 100 µM (inactive) | > 100 µM (inactive) | > 100 µM (inactive) | > 100 µM (inactive) | > 100 µM (inactive) | > 100 µM (inactive) | > 100 µM (inactive) | > 100 µM (inactive) | > 100 µM (inactive) | > 100 µM (inactive) | > 100 µM (inactive) | > 100 µM (inactive) | > 100 µM (inactive) | > 100 µM (inactive) | > 100 µM (inactive) | > 100 µM (inactive) | – | – | – | –
O=C1N=C2Sc3ccc4ccccc4c3N2C1=O | 39.7 µM (inactive) | 31.3 µM (inactive) | 20.4 µM (inactive) | 26.4 µM (inactive) | 34.4 µM (inactive) | > 100 µM (inactive) | 18.6 µM (inactive) | 17 µM (inactive) | 17.7 µM (inactive) | 15 µM (inactive) | 32.7 µM (inactive) | 23.6 µM (inactive) | – | 19.2 µM (inactive) | 22.4 µM (inactive) | 44.4 µM (inactive) | – | – | – | –
COc1cc2c(c(OC)c1OC)-c1ccc(SC)c(=O)cc1[C@@H](NCc1cccc([N+](=O)[O-])c1)CC2 | < 0.01 µM (active) | < 0.01 µM (active) | < 0.01 µM (active) | < 0.01 µM (active) | < 0.01 µM (active) | – | < 0.01 µM (active) | < 0.01 µM (active) | < 0.01 µM (active) | < 0.01 µM (active) | < 0.01 µM (active) | 11.1 µM (inactive) | < 0.01 µM (active) | – | < 0.01 µM (active) | < 0.01 µM (active) | – | – | – | –
N=C1SCCS1 | > 100 µM (inactive) | > 100 µM (inactive) | > 100 µM (inactive) | > 100 µM (inactive) | > 100 µM (inactive) | > 100 µM (inactive) | > 100 µM (inactive) | > 100 µM (inactive) | > 100 µM (inactive) | 59 µM (inactive) | > 100 µM (inactive) | 36.2 µM (inactive) | > 100 µM (inactive) | > 100 µM (inactive) | > 100 µM (inactive) | > 100 µM (inactive) | – | – | – | –
Clc1cc(Cl)cc(/N=C/C=C/Nc2cc(Cl)cc(Cl)c2)c1 | – | 20.8 µM (inactive) | 21.4 µM (inactive) | 19.9 µM (inactive) | 29.9 µM (inactive) | 24.5 µM (inactive) | 23 µM (inactive) | 14.6 µM (inactive) | 15.5 µM (inactive) | 30.8 µM (inactive) | 14.7 µM (inactive) | 13.1 µM (inactive) | 14.7 µM (inactive) | 23.7 µM (inactive) | 15.1 µM (inactive) | 19.8 µM (inactive) | 13.4 µM (inactive) | 18.6 µM (inactive) | 21 µM (inactive) | 43.3 µM (inactive)
C=C(Br)C(C)(Br)CCC(Br)C(C)(C)Br (centres undefined) | 17.2 µM (inactive) | 15 µM (inactive) | – | 24.5 µM (inactive) | 46.3 µM (inactive) | 21.7 µM (inactive) | 26.5 µM (inactive) | 39.4 µM (inactive) | 21.2 µM (inactive) | 18.6 µM (inactive) | 38.8 µM (inactive) | 28.3 µM (inactive) | 14.7 µM (inactive) | 14.7 µM (inactive) | 33.5 µM (inactive) | 24.3 µM (inactive) | – | – | – | –
COc1ccc(NC(=O)CSC(=O)c2ccccc2)c(SCCSSCCSc2cc(OC)ccc2NC(=O)CSC(=O)c2ccccc2)c1 | – | 79.6 µM (inactive) | > 100 µM (inactive) | 27.9 µM (inactive) | > 100 µM (inactive) | > 100 µM (inactive) | > 100 µM (inactive) | 6.44 µM (inactive) | 48.8 µM (inactive) | 84.9 µM (inactive) | > 100 µM (inactive) | > 100 µM (inactive) | > 100 µM (inactive) | > 100 µM (inactive) | > 100 µM (inactive) | 3.5 µM (inactive) | 66.5 µM (inactive) | > 100 µM (inactive) | > 100 µM (inactive) | > 100 µM (inactive)
Cc1ccc([N+](=O)[O-])cc1S(=O)(=O)Nc1ccc(C2=NN(S(=O)(=O)c3cc([N+](=O)[O-])ccc3C)C(c3ccccc3O)C2)cc1 (centres undefined) | – | > 100 µM (inactive) | 42.4 µM (inactive) | 31.5 µM (inactive) | 52.5 µM (inactive) | 51.1 µM (inactive) | 34.4 µM (inactive) | > 100 µM (inactive) | > 100 µM (inactive) | 49.9 µM (inactive) | > 100 µM (inactive) | 31.1 µM (inactive) | 44 µM (inactive) | 47.5 µM (inactive) | > 100 µM (inactive) | 26.7 µM (inactive) | > 100 µM (inactive) | > 100 µM (inactive) | 10.4 µM (inactive) | > 100 µM (inactive)
O=C1C(Cl)=C(N2CCC[C@@H]2CO)C(=O)c2c(O)ccc(O)c21 | – | 0.244 µM (active) | 1.66 µM (inactive) | 1.57 µM (inactive) | 1.88 µM (inactive) | 0.395 µM (active) | 1.79 µM (inactive) | 1.76 µM (inactive) | 1.44 µM (inactive) | 1.66 µM (inactive) | 2.15 µM (inactive) | 1.69 µM (inactive) | 1.12 µM (active) | 1.58 µM (inactive) | 1.01 µM (active) | 0.269 µM (active) | 1.16 µM (inactive) | 1.51 µM (inactive) | 2.9 µM (inactive) | 1.9 µM (inactive)
CC12CP(=O)(O)CC1C2(Cl)Cl (centres undefined) | – | > 100 µM (inactive) | > 100 µM (inactive) | > 100 µM (inactive) | > 100 µM (inactive) | > 100 µM (inactive) | > 100 µM (inactive) | > 100 µM (inactive) | > 100 µM (inactive) | > 100 µM (inactive) | > 100 µM (inactive) | > 100 µM (inactive) | > 100 µM (inactive) | > 100 µM (inactive) | > 100 µM (inactive) | > 100 µM (inactive) | > 100 µM (inactive) | > 100 µM (inactive) | > 100 µM (inactive) | > 100 µM (inactive)
Cc1noc(-c2ccc(C(=O)O)[nH]2)c1Br | – | > 100 µM (inactive) | 37.4 µM (inactive) | 87.9 µM (inactive) | 31.5 µM (inactive) | > 100 µM (inactive) | 28.1 µM (inactive) | 31.8 µM (inactive) | 45.6 µM (inactive) | 12.2 µM (inactive) | > 100 µM (inactive) | 26.6 µM (inactive) | 39.7 µM (inactive) | 22.5 µM (inactive) | > 100 µM (inactive) | > 100 µM (inactive) | 50.1 µM (inactive) | > 100 µM (inactive) | > 100 µM (inactive) | > 100 µM (inactive)
Cc1ccc(N)cc1.O=S(=O)(O)/C(=C\c1ccccc1)c1ccccc1 | – | > 100 µM (inactive) | > 100 µM (inactive) | > 100 µM (inactive) | > 100 µM (inactive) | > 100 µM (inactive) | > 100 µM (inactive) | > 100 µM (inactive) | > 100 µM (inactive) | > 100 µM (inactive) | > 100 µM (inactive) | > 100 µM (inactive) | > 100 µM (inactive) | > 100 µM (inactive) | 93.3 µM (inactive) | > 100 µM (inactive) | > 100 µM (inactive) | > 100 µM (inactive) | > 100 µM (inactive) | > 100 µM (inactive)
CN(CCCNC(=O)c1nn(-c2ccc(Cl)cc2Cl)c2c1Cc1ccccc1-2)CCCNC(=O)c1nn(-c2ccc(Cl)cc2Cl)c2c1Cc1ccccc1-2 | – | 0.993 µM (active) | 1.77 µM (inactive) | 1.92 µM (inactive) | 1.73 µM (inactive) | 1.21 µM (inactive) | 1.72 µM (inactive) | 0.285 µM (active) | 1.7 µM (inactive) | 1.61 µM (inactive) | 1.73 µM (inactive) | 1.55 µM (inactive) | 1.43 µM (inactive) | 1.72 µM (inactive) | 1.68 µM (inactive) | 1.32 µM (inactive) | 1.55 µM (inactive) | 1.48 µM (inactive) | 1.71 µM (inactive) | 2.03 µM (inactive)
CC1=CCN(c2ccccn2)OC1c1ccccc1 (centres undefined) | > 100 µM (inactive) | > 100 µM (inactive) | > 100 µM (inactive) | > 100 µM (inactive) | – | 66.8 µM (inactive) | > 100 µM (inactive) | > 100 µM (inactive) | > 100 µM (inactive) | – | > 100 µM (inactive) | > 100 µM (inactive) | 54.6 µM (inactive) | > 100 µM (inactive) | – | > 100 µM (inactive) | – | – | – | –
COc1ccc(OC)c(CSc2ccc(OC)c(OC)c2)c1 | – | > 100 µM (inactive) | > 100 µM (inactive) | 49.9 µM (inactive) | > 100 µM (inactive) | > 84.7 µM (inactive) | > 81.5 µM (inactive) | 31.4 µM (inactive) | > 86.9 µM (inactive) | > 52.2 µM (inactive) | > 73.3 µM (inactive) | 57.1 µM (inactive) | > 90.2 µM (inactive) | > 100 µM (inactive) | 45.4 µM (inactive) | 43.2 µM (inactive) | > 100 µM (inactive) | > 79.4 µM (inactive) | 38.8 µM (inactive) | > 85.1 µM (inactive)
